Measurements reported in US9211310B2, “Use of a Chinese medicine composition in preparing medicaments for treating secondary prevention of myocardial infarction” (TASLY PHARMACEUTICAL GROUP CO., LTD, priority 2010, dated 2015).

Test system: patients after acute myocardial infarction
Assay: TCM symptom score, total and single (chest pain, chest tightness, short breath, fatigue, palpitation, spontaneous perspiration, pale complexion), same clinical trial
Assay type: in vivo, human
Text: 3508 patients who were in accordance with the diagnostic standards of AMI for 28 days to 2 years and differentiated as Qi deficiency and blood stagnation syndrome by TCM were studied. 0.5 g Chinese medicine composition prepared by the method of EXAMPLE 1 (Coded as QSYQ) was administrated half an hour after meal, 3 times per day.
They included the overall survival time, angina pectoris score, TCM symptom score and life quality score, where angina pectoris score, TCM symptom score and life quality score were evaluated at randomization, in 1st, 3rd, 6th, 9th, 12th month after treatment and 18th month after follow-up.
The analysis method referred to the angina pectoris score.

[1] = 3 months after treatment-baseline, PP
[2] = 6 months after treatment-baseline, FAS
[3] = 6 months after treatment-baseline, PP

## CC(=O)Oc1ccccc1C(=O)O [Control group, aspirine]
[1]
  change of chest pain score −6, percent of patients: (0.97%)
  change of chest tightness score 0, number of patients: 994
  change of chest tightness score 0, percent of patients: (68.88%)
  change of chest tightness score 3, number of patients: 334
  change of chest tightness score 3, percent of patients: (23.15%)
  change of chest tightness score 6, number of patients: 34
  change of chest tightness score 6, percent of patients: (2.36%)
  change of chest tightness score 9, number of patients: 4
  change of chest tightness score 9, percent of patients: (0.28%)
  change of chest tightness score −3, number of patients: 70
  change of chest tightness score −3, percent of patients: (4.85%)
  change of chest tightness score −6, number of patients: 6
  change of chest tightness score −6, percent of patients: (0.42%)
  change of chest tightness score −9, number of patients: 1
  change of chest tightness score −9, percent of patients: (0.07%)
3 months after treatment, FAS
  chest pain score 0, number of patients: 656
  chest pain score 0, percent of patients: (38.21%)
  chest pain score 3, number of patients: 643
  chest pain score 3, percent of patients: (37.45%)
  chest pain score 6, number of patients: 410
  chest pain score 6, percent of patients: (23.88%)
  chest pain score 9, number of patients: 8
  chest pain score 9, percent of patients: (0.47%)
  chest tightness score 0, number of patients: 656
  chest tightness score 0, percent of patients: (38.21%)
  chest tightness score 3, number of patients: 643
  chest tightness score 3, percent of patients: (37.45%)
  chest tightness score 6, number of patients: 410
  chest tightness score 6, percent of patients: (23.88%)
  chest tightness score 9, number of patients: 8
  chest tightness score 9, percent of patients: (0.47%)
3 months after treatment, PP
  chest pain score 0, number of patients: 550
  chest pain score 0, percent of patients: (38.01%)
  chest pain score 3, number of patients: 535
  chest pain score 3, percent of patients: (36.97%)
  chest pain score 6, number of patients: 356
  chest pain score 6, percent of patients: (24.60%)
  chest pain score 9, number of patients: 6
  chest pain score 9, percent of patients: (0.41%)
  chest tightness score 0, number of patients: 550
  chest tightness score 0, percent of patients: (38.01%)
  chest tightness score 3, number of patients: 535
  chest tightness score 3, percent of patients: (36.97%)
  chest tightness score 6, number of patients: 356
  chest tightness score 6, percent of patients: (24.60%)
  chest tightness score 9, number of patients: 6
  chest tightness score 9, percent of patients: (0.41%)
[2]
  change of chest pain score 0, number of patients: 1104
  change of chest pain score 0, percent of patients: (64.60%)
  change of chest pain score 3, number of patients: 405
  change of chest pain score 3, percent of patients: (23.70%)
  change of chest pain score 6, number of patients: 101
  change of chest pain score 6, percent of patients: (5.91%)
  change of chest pain score 9, number of patients: 6
  change of chest pain score 9, percent of patients: (0.35%)
  change of chest pain score −3, number of patients: 80
  change of chest pain score −3, percent of patients: (4.68%)
  change of chest pain score −6, number of patients: 13
  change of chest pain score −6, percent of patients: (0.76%)
  change of chest pain score −9, number of patients: 0
  change of chest pain score −9, percent of patients: (0.00%)
  change of chest tightness score 0, number of patients: 1105
  change of chest tightness score 0, percent of patients: (64.66%)
  change of chest tightness score 1, number of patients: 1
  change of chest tightness score 1, percent of patients: (0.06%)
  change of chest tightness score 3, number of patients: 459
  change of chest tightness score 3, percent of patients: (26.86%)
  change of chest tightness score 6, number of patients: 48
  change of chest tightness score 6, percent of patients: (2.81%)
  change of chest tightness score 9, number of patients: 4
  change of chest tightness score 9, percent of patients: (0.23%)
  change of chest tightness score −3, number of patients: 88
  change of chest tightness score −3, percent of patients: (5.15%)
  change of chest tightness score −6, number of patients: 3
  change of chest tightness score −6, percent of patients: (0.18%)
  change of chest tightness score −9, number of patients: 1
  change of chest tightness score −9, percent of patients: (0.06%)
[3]
  change of chest pain score 0, number of patients: 919
  change of chest pain score 0, percent of patients: (64.54%)
  change of chest pain score 3, number of patients: 352
  change of chest pain score 3, percent of patients: (24.72%)
  change of chest pain score 6, number of patients: 86
  change of chest pain score 6, percent of patients: (6.04%)
  change of chest pain score 9, number of patients: 5
  change of chest pain score 9, percent of patients: (0.35%)
  change of chest pain score −3, number of patients: 57
  change of chest pain score −3, percent of patients: (4.00%)
  change of chest pain score −6, number of patients: 5
  change of chest pain score −6, percent of patients: (0.35%)
  change of chest pain score −9, number of patients: 0
  change of chest pain score −9, percent of patients: (0.00%)
  change of chest tightness score 0, number of patients: 904
  change of chest tightness score 0, percent of patients: (63.44%)
  change of chest tightness score 1, number of patients: 1
  change of chest tightness score 1, percent of patients: (0.07%)
  change of chest tightness score 3, number of patients: 407
  change of chest tightness score 3, percent of patients: (28.56%)
  change of chest tightness score 6, number of patients: 42
  change of chest tightness score 6, percent of patients: (2.95%)
  change of chest tightness score 9, number of patients: 3
  change of chest tightness score 9, percent of patients: (0.21%)
  change of chest tightness score −3, number of patients: 64
  change of chest tightness score −3, percent of patients: (4.49%)
  change of chest tightness score −6, number of patients: 3
  change of chest tightness score −6, percent of patients: (0.21%)
  change of chest tightness score −9, number of patients: 1
  change of chest tightness score −9, percent of patients: (0.07%)
6 months after treatment, FAS
  chest pain score 0, number of patients: 729
  chest pain score 0, percent of patients: (42.43%)
  chest pain score 3, number of patients: 638
  chest pain score 3, percent of patients: (37.14%)
  chest pain score 6, number of patients: 345
  chest pain score 6, percent of patients: (20.08%)
  chest pain score 9, number of patients: 6
  chest pain score 9, percent of patients: (0.35%)
  chest tightness score 0, number of patients: 729
  chest tightness score 0, percent of patients: (42.43%)
  chest tightness score 3, number of patients: 638
  chest tightness score 3, percent of patients: (37.14%)
  chest tightness score 6, number of patients: 345
  chest tightness score 6, percent of patients: (20.08%)
  chest tightness score 9, number of patients: 6
  chest tightness score 9, percent of patients: (0.35%)
6 months after treatment, PP
  chest pain score 0, number of patients: 613
